Converted amounts (≈) assume the structure as drawn.
How the values were obtained:
[1] = Reducing power by the Somogyi-Nelson method; type: physicochemical
Procedure: Thereafter these high-purity saccharide preparations were tested for reducing power with the Somogyi-Nelson method and their reducing powers were represented in terms of DE.

mice = test: Acute toxicity in mice upon oral administration; type: in vivo; conditions: for death: maximum administrable dose
Procedure: (§1) High-purity maltosyl maltoside, maltotriosyl maltoside and maltotriosyl maltotrioside prepared by the method in Experiment B-1 were tested for acute toxicity in mice upon oral administration.

[2] = Acute toxicity in mice upon oral administration; type: in vivo; conditions: mouse, in vivo, acute
Procedure: as §1

[3] = Solubility of crystals in water; type: physicochemical; conditions: purity 99.0%, 25° C. water
Procedure: An alpha-D-maltotriosyl alpha-D-maltotrioside (Substance 3), purity of 97% or higher, prepared by the method in Experiment B-1, was decolored, deionized and concentrated to 70% in usual manner and the concentrate was transferred in a beaker and allowed to stand in 4° C. chilled room for 2 months leading to eduction of crystals. The crystals were centrifugally collected and washed with a minimum amount of water, thus obtaining crystals with a purity of 99.0%.
The physicochemical properties of the crystals as tested were as follows:
Relatively high, about 91 g being soluble in 100 ml of 25° C. water.

[4] = Hygroscopicity of crystalline maltotriosyl maltotrioside; type: physicochemical; conditions: varies depending on purity

SMILES	DE (reducing power) [1]	acute toxicity (mice)	death (mice)	LD50 [2] [mg/kg]	other results
OC[C@H]1O[C@H](O[C@H]2O[C@H](CO)[C@@H](O[C@H]3O[C@H](CO)[C@@H](O)[C@H](O)[C@H]3O)[C@H](O)[C@H]2O)[C@H](O)[C@@H](O)[C@@H]1O [PI, alpha-glucosyl trehalose]	0.83	–	–	–	–
OC[C@H]1O[C@H](O[C@H]2O[C@H](CO)[C@@H](O[C@H]3O[C@H](CO)[C@@H](O[C@H]4O[C@H](CO)[C@@H](O)[C@H](O)[C@H]4O)[C@H](O)[C@H]3O)[C@H](O)[C@H]2O)[C@H](O)[C@@H](O)[C@@H]1O [PII, alpha-maltosyl trehalose]	0.35	–	–	–	–
OC[C@H]1O[C@H](O[C@H]2O[C@H](CO)[C@@H](O[C@H]3O[C@H](CO)[C@@H](O[C@H]4O[C@H](CO)[C@@H](O[C@H]5O[C@H](CO)[C@@H](O)[C@H](O)[C@H]5O)[C@H](O)[C@H]4O)[C@H](O)[C@H]3O)[C@H](O)[C@H]2O)[C@H](O)[C@@H](O)[C@@H]1O [PIII, alpha-maltotriosyl trehalose]	0.10	–	–	–	–
OC[C@H]1O[C@H](O[C@H]2O[C@H](CO)[C@@H](O[C@H]3O[C@H](CO)[C@@H](O[C@H]4O[C@H](CO)[C@@H](O[C@H]5O[C@H](CO)[C@@H](O[C@H]6O[C@H](CO)[C@@H](O)[C@H](O)[C@H]6O)[C@H](O)[C@H]5O)[C@H](O)[C@H]4O)[C@H](O)[C@H]3O)[C@H](O)[C@H]2O)[C@H](O)[C@@H](O)[C@@H]1O [PIV, alpha-maltotetraosyl trehalose]	0.27	–	–	–	–
OC[C@H]1O[C@H](O[C@H]2O[C@H](CO)[C@@H](O[C@H]3O[C@H](CO)[C@@H](O[C@H]4O[C@H](CO)[C@@H](O[C@H]5O[C@H](CO)[C@@H](O[C@H]6O[C@H](CO)[C@@H](O[C@H]7O[C@H](CO)[C@@H](O)[C@H](O)[C@H]7O)[C@H](O)[C@H]6O)[C@H](O)[C@H]5O)[C@H](O)[C@H]4O)[C@H](O)[C@H]3O)[C@H](O)[C@H]2O)[C@H](O)[C@@H](O)[C@@H]1O [PV, alpha-maltopentaosyl trehalose]	0.23	–	–	–	–
OC[C@H]1O[C@H](O[C@H]2[C@H](O)[C@@H](O)[C@@H](O[C@H]3O[C@H](CO)[C@@H](O[C@H]4O[C@H](CO)[C@@H](O)[C@H](O)[C@H]4O)[C@H](O)[C@H]3O)O[C@@H]2CO)[C@H](O)[C@@H](O)[C@@H]1O [maltosyl maltoside, O-alpha-D-glucopyranosyl-(1→4)-alpha-D-glucopyranosyl alpha-D-maltoside]	–	low intoxicity	no death was observed	≥ 50000	–
OC[C@H]1O[C@H](O[C@H]2[C@H](O)[C@@H](O)[C@@H](O[C@H]3O[C@H](CO)[C@@H](O[C@H]4O[C@H](CO)[C@@H](O[C@H]5O[C@H](CO)[C@@H](O)[C@H](O)[C@H]5O)[C@H](O)[C@H]4O)[C@H](O)[C@H]3O)O[C@@H]2CO)[C@H](O)[C@@H](O)[C@@H]1O [maltotriosyl maltoside, O-alpha-D-glucopyranosyl-(1→4)-O-alpha-D-glucopyranosyl-(1→4)-alpha-D-glucopyranosyl alpha-D-maltoside]	–	low intoxicity	no death was observed	≥ 50000	–
OC[C@H]1O[C@H](O[C@H]2[C@H](O)[C@@H](O)[C@@H](O[C@H]3[C@H](O)[C@@H](O)[C@@H](O[C@H]4O[C@H](CO)[C@@H](O[C@H]5O[C@H](CO)[C@@H](O[C@H]6O[C@H](CO)[C@@H](O)[C@H](O)[C@H]6O)[C@H](O)[C@H]5O)[C@H](O)[C@H]4O)O[C@@H]3CO)O[C@@H]2CO)[C@H](O)[C@@H](O)[C@@H]1O [maltotriosyl maltotrioside, O-alpha-D-glucopyranosyl-(1→4)-O-alpha-D-glucopyranosyl-(1→4)-alpha-D-glucopyranosyl alpha-D-maltotrioside]	–	low intoxicity	no death was observed	≥ 50000	solubility [3]: ~910 mg/mL (≈ 918 mM); hygroscopicity ([4]; listed as crystalline alpha-D-maltotriosyl alpha-D-maltotrioside): very weak hygroscopicity; hygroscopicity ([4]; listed as crystalline maltotriosyl maltotrioside): substantially non-hygroscopic
